Tests used:
Format in all cases: biochemical
TrkA = target: T1, TrkA (Homo sapiens, UniProt P04629); assay: HTRF KinEASE kinase assay, TrkA enzyme; settings: recombinant Human TRK enzyme, NTRK1 4 nM, read-out: TrkA Enz (nM), Trk inhibition activity expressed as IC50
T1 construct: purchased Invitrogen
Experimental: (§1) To determine the IC50 of small molecule compounds for the Human TRK receptors, HTRF® KinEASE™ kinase kits from Cisbio were used. Assays were carried out in low volume, black 384-well plates.
(§2) Recombinant Human TRK enzymes (Invitrogen) were incubated in the presence or absence of the compound (11-point dose response with FAC as 10 μM) for 30 minutes at 23° C. Kinase reaction was started by addition of ATP to a mixture containing the enzyme (NTRK1-4 nM, NTRK2-1 nM, NTRK3-10 nM) and substrate (1 μM). Kinase reaction was allowed to carry on for 10 to 45 minutes at 23° C. after which it was stopped by addition of the detection mix (supplied by vendor) containing EDTA, TK-Ab-labelled with Eu^3+-cryptate (1:200 dilutions) and Streptavidin-XL665 (250 nM). Assay plates were incubated in this detection mix for 60 minutes at 23° C. The resulting TR-FRET signal, calculated as the fluorescence ratio at 665/620 nm, was read on an Envision and was proportional to the level of phosphorylation of the peptide in the presence or absence of the compound. The uniformity of the plates were assured with Z′ value [1-{3*(SDHPE+SDZPE)/(ZPE-HPE)}]. The percent (%) effect i.e. Inhibition of compound was calculated in comparison to the signal in the positive (HPE) and negative control (ZPE) wells within each assay plate. The endpoint value % Inhibition for the Standard compound was evaluated in each experiment as a quality control measure. IC50 was determined by plotting compound inhibition at respective dose in Graphpad prism5 using four parameter logistic curve fit.

TrkB = target: T2, TrkB (Homo sapiens, UniProt Q16620); assay: HTRF KinEASE kinase assay, TrkB enzyme; settings: recombinant Human TRK enzyme, NTRK2 1 nM, read-out: TrkB Enz (nM), Trk inhibition activity expressed as IC50
T2 construct: purchased Invitrogen
Experimental: as §1, §2

TrkC = target: T3, TrkC (Homo sapiens, UniProt Q16288); assay: HTRF KinEASE kinase assay, TrkC enzyme; settings: recombinant Human TRK enzyme, NTRK3 10 nM, read-out: TrkC Enz (nM), Trk inhibition activity expressed as IC50
T3 construct: purchased Invitrogen
Experimental: as §1, §2

T1 sequence (P04629 33-796): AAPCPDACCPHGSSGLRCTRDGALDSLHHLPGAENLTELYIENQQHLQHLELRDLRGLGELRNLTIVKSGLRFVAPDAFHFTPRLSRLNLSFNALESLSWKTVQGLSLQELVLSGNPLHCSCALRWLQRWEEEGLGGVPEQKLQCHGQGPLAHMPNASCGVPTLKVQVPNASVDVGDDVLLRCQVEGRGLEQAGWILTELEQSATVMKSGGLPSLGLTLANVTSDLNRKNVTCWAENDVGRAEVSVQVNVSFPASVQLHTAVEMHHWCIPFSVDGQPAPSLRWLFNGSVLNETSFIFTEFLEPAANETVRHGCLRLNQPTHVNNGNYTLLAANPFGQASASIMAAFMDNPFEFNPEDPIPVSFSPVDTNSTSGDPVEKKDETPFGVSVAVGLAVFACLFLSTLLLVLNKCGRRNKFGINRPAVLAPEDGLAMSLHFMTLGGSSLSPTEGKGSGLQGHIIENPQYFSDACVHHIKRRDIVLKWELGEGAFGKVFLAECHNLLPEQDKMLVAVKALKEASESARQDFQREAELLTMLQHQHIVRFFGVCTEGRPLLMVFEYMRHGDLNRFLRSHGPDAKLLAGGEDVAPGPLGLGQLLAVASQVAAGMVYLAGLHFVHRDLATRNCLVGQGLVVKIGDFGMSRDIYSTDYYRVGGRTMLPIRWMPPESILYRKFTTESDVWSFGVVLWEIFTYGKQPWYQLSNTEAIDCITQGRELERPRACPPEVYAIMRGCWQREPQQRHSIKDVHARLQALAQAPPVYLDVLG
T3 sequence (Q16288 32-839): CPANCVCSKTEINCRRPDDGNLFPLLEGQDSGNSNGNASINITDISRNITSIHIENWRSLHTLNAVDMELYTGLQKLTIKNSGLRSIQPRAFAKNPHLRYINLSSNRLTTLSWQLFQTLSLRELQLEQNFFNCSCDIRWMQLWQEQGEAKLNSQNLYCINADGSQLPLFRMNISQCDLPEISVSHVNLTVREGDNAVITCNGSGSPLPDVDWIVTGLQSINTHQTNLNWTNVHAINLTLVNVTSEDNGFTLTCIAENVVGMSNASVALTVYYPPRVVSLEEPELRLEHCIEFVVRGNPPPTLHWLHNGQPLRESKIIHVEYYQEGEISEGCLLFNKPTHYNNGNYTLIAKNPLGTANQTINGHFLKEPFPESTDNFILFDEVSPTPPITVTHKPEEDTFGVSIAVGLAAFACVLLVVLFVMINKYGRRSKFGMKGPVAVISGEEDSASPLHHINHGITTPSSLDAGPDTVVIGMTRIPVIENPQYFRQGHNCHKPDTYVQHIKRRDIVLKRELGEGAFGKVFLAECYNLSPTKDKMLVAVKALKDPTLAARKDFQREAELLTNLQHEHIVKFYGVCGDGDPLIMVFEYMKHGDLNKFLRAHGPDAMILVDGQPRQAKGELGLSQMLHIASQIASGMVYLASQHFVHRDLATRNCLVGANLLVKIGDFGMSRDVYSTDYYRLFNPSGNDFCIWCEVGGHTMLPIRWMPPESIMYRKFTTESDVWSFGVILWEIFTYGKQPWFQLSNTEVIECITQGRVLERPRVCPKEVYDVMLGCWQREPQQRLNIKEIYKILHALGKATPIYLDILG
T2 sequence (Q16620 32-822): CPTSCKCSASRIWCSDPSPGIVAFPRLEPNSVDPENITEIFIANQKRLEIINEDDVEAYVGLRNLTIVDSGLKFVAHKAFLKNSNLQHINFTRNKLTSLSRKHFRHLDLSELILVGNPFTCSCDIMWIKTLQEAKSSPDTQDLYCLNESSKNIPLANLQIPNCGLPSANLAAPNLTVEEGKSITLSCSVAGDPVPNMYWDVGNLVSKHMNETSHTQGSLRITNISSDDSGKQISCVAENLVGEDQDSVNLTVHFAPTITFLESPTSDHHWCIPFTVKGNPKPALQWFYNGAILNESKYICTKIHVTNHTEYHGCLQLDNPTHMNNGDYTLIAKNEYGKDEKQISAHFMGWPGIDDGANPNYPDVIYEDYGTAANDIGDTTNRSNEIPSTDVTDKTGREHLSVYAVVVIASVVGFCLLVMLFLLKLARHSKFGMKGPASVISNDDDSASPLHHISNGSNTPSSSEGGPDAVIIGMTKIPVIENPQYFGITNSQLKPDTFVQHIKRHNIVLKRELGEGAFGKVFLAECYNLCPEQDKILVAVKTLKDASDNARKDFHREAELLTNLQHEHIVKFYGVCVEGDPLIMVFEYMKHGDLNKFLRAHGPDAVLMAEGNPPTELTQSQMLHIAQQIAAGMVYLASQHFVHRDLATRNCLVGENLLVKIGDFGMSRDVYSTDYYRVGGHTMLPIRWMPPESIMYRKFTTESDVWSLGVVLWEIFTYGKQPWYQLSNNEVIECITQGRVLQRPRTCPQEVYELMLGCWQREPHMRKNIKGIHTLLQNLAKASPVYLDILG

Compound: CSc1ccc(F)cc1[C@H]1C[C@H](F)CN1c1ccc2ncc(/C(=N/C#N)NC3CCCCC3)n2n1 [Example 6, (Z)-N′-cyano-N-cyclohexyl-6-[(2R,4S)-4-fluoro-2-[5-fluoro-2-(methylsulfanyl)phenyl]pyrrolidin-1-yl]imidazo[1,2-b]pyridazine-3-carboximidamide]
- IC50 (TrkA): 1.52 nM
- IC50 (TrkB): 0.7 nM
- IC50 (TrkC): 1.91 nM

Compound: CSc1ccc(F)cc1[C@H]1CCCN1c1ccc2ncc(/C(=N/C#N)N[C@H]3CCCOC3)n2n1 [Example 2, (Z)-N′-cyano-6-[(2R)-2-[5-fluoro-2-(methylsulfanyl)phenyl]pyrrolidin-1-yl]-N-[(3S)-oxan-3-yl]imidazo[1,2-b]pyridazine-3-carboximidamide]
- IC50 (TrkA): 1.04 nM
- IC50 (TrkB): 0.83 nM
- IC50 (TrkC): 1.78 nM

Compound: CCN/C(=N\C#N)c1cnc2ccc(N3C[C@@H](F)C[C@@H]3c3cc(F)cc(SC)c3)nn12 [Example 3, (Z)-N′-cyano-N-ethyl-6-[(2R,4S)-4-fluoro-2-[5-fluoro-3-(methylsulfanyl)phenyl]pyrrolidin-1-yl]imidazo[1,2-b]pyridazine-3-carboximidamide]
- IC50 (TrkA): 1.17 nM
- IC50 (TrkB): 0.37 nM
- IC50 (TrkC): 1.53 nM

Compound: CSc1ccc(F)cc1[C@H]1CCCN1c1ccc2ncc(/C(=N/C#N)NCc3cccc(O)c3)n2n1 [Example 7, (Z)-N′-cyano-6-[(2R)-2-[5-fluoro-2-(methylsulfanyl)phenyl]pyrrolidin-1-yl]-N-[(3-hydroxyphenyl)methyl]imidazo[1,2-b]pyridazine-3-carboximidamide]
- IC50 (TrkA): 1.44 nM
- IC50 (TrkB): 1.55 nM
- IC50 (TrkC): 3.16 nM

Compound: CCN/C(=N\C#N)c1cnc2ccc(N3C[C@@H](F)C[C@@H]3c3cc(F)ccc3SC)nn12 [Example 4, (Z)-N′-cyano-N-ethyl-6-[(2R,4S)-4-fluoro-2-[5-fluoro-2-(methylsulfanyl)phenyl]pyrrolidin-1-yl]imidazo[1,2-b]pyridazine-3-carboximidamide]
- IC50 (TrkA): 0.97 nM
- IC50 (TrkB): 0.23 nM
- IC50 (TrkC): 1 nM

Compound: CCCCN/C(=N\C#N)c1cnc2ccc(N3C[C@@H](F)C[C@@H]3c3cc(F)ccc3SC)nn12 [Example 5, (Z)-N-butyl-N′-cyano-6-[(2R,4S)-4-fluoro-2-[5-fluoro-2-(methylsulfanyl)phenyl]pyrrolidin-1-yl]imidazo[1,2-b]pyridazine-3-carboximidamide]
- IC50 (TrkA): 1.1 nM
- IC50 (TrkB): 0.41 nM
- IC50 (TrkC): 1.61 nM

Compound: CSc1ccc(F)cc1[C@H]1CCCN1c1ccc2ncc(/C(=N/C#N)N[C@@H]3CCCOC3)n2n1 [Example 1, (Z)-N′-cyano-6-[(2R)-2-[5-fluoro-2-(methylsulfanyl)phenyl]pyrrolidin-1-yl]-N-[(3R)-oxan-3-yl]imidazo[1,2-b]pyridazine-3-carboximidamide]
- IC50 (TrkA): 0.95 nM
- IC50 (TrkB): 0.88 nM
- IC50 (TrkC): 1.6 nM

From US20210277008A1, “IMIDAZO[1,2-B]PYRIDAZINE DERIVATIVES AS TRK INHIBITORS” (BenevolentAI Bio Limited, priority 2018, published 2021)
